According to patent publication US10195189B2, “2-phenethenyltetrahydro isoquinolines useful as anti-HIV compounds” (priority 2014, dated 2019):

Tested on: HIV-1 NL4-3 viral clone expressing Renilla luciferase
Assay: microbe, parasite or virus in culture
Format: cell-based
Conditions: Human immunodeficiency virus 1, NL43, MT2, 96 h
How it was run: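 MT-2 cells (2×10^4/well) were infected at MOI 0.027 with Renilla-luciferase HIV-1 NL4-3 alongside 3-fold compound dilutions for 96 h. Spread was read by EnduRen luminescence and supernatant infectivity on TZM-bl (48 h, MUG fluorescence). Mock-infected cytotoxicity used AlamarBlue. % inhibition versus solvent was fitted by 4-parameter logistic (0–100% constrained) for EC50/CC50.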

Structure (SMILES)	EC50 [µM]
COc1cc2c(cc1OCc1ccccc1)CCNC2/C=C/c1ccnn1C (centres unmarked) [Example AK, 6-benzyloxy-7-methoxy-1-[(E)-2-(2-methylpyrazol-3-yl)vinyl]-1,2,3,4-tetrahydroisoquinoline]	8.87
COc1cc2c(cc1OCc1ccccc1)CCNC2/C=C/c1ccc(N2CCN(C)CC2)cc1 (centres unmarked) [DW, 6-(Benzyloxy)-7-methoxy-1-[(E)-2-[4-(4-methylpiperazin-1-yl)phenyl]ethenyl]-1,2,3,4-tetrahydroisoquinoline]	1.24
COc1cc2c(cc1OCc1ccccc1)CCNC2/C=C/c1ccc(C(=O)O)cc1 (centres unmarked) [EQ, 4-[(E)-2-(6-benzyloxy-7-methoxy-1,2,3,4-tetrahydroisoquinolin-1-yl)vinyl]benzoic acid]	7.04
COc1cccc(/C=C/C2NCCc3cc(OCc4ccccc4)c(OC)cc32)c1 (centres unmarked) [EJ, 6-Benzyloxy-7-methoxy-1-[(E)-2-(3-methoxyphenyl)vinyl]-1,2,3,4-tetrahydroisoquinoline]	2.98
COc1cc(C)c(/C=C/C2c3cc(OC)c(OCc4ccccc4)cc3CCN2C(=O)c2ccncc2)cc1OCc1ccccc1 (centres unmarked) [Example U, [6-benzyloxy-1-[(E)-2-(5-benzyloxy-4-methoxy-2-methyl-phenyl)vinyl]-7-methoxy-3,4-dihydro-1H-isoquinolin-2-yl]-(4-pyridyl)methanone]	0.87
COc1cc2c(cc1OCc1ccccc1)CCNC2/C=C/c1ccc(OC)c2occc12 (centres unmarked) [Example AN, 6-Benzyloxy-7-methoxy-1-[(E)-2-(7-methoxybenzofuran-4-yl)vinyl]-1,2,3,4-tetrahydroisoquinoline]	0.14
COc1ccc(/C=C/C2c3cc(OC)c(OCc4ccccc4)cc3CCN2C)cc1OCc1ccccc1 (centres unmarked) [Example V, 6-benzyloxy-1-[(E)-2-(3-benzyloxy-4-methoxy-phenyl)vinyl]-7-methoxy-2-methyl-3,4-dihydro-1H-isoquinoline]	0.78
COc1cc2c(cc1OCc1ccccc1)CCNC2/C=C/c1ccc2c(c1)CCCO2 (centres unmarked) [CB, 6-Benzyloxy-1-[(E)-2-chroman-6-ylvinyl]-7-methoxy-1,2,3,4-tetrahydroisoquinoline]	1.55
CCCCN1CCc2cc(OCc3ccccc3)c(OC)cc2C1/C=C/c1ccc(OC)c(OCc2ccccc2)c1 (centres unmarked) [Example G, 6-Benzyloxy-1-[(E)-2-(3-benzyloxy-4-methoxy-phenyl)vinyl]-2-butyl-7-methoxy-3,4-dihydro-1H-isoquinoline]	5
COc1cc2c(cc1OCc1ccccc1)CCNC2/C=C/c1scnc1C (centres unmarked) [DY, 5-[(E)-2-(6-Benzyloxy-7-methoxy-1,2,3,4-tetrahydroisoquinolin-1-yl)vinyl]-4-methyl-thiazole]	5.51
COc1ccc(OC)c(/C=C/C2NCCc3cc(OCc4ccccc4)c(OC)cc32)c1 (centres unmarked) [EK, 6-Benzyloxy-1-[(E)-2-(2,5-dimethoxyphenyl)vinyl]-7-methoxy-1,2,3,4-tetrahydroisoquinoline]	0.38
COc1cc2c(cc1OCc1ccccc1)CCNC2/C=C/c1cc2c(cc1C)OCO2 (centres unmarked) [BB, 6-Benzyloxy-7-methoxy-1-[(E)-2-(6-methyl-1,3-benzodioxol-5-yl)vinyl]-1,2,3,4-tetrahydroisoquinoline]	0.0544
COc1cc2c(cc1OCc1ccccc1)CCNC2/C=C/c1cn(C(=O)OC(C)(C)C)c2ccccc12 (centres unmarked) [CI, tert-Butyl 3-[(E)-2-(6-benzyloxy-7-methoxy-1,2,3,4-tetrahydroisoquinolin-1-yl)vinyl]indole-1-carboxylate]	0.23
CCCCOc1cc(/C=C/C2NCCc3cc(OCc4ccccc4)c(OC)cc32)ccc1OC (centres unmarked) [BE, 6-Benzyloxy-1-[(E)-2-(3-butoxy-4-methoxy-phenyl)vinyl]-7-methoxy-1,2,3,4-tetrahydroisoquinoline]	0.0998
COc1cc(C)c(/C=C/C2NCCc3cc(OCc4ccccc4)c(OC)cc32)cc1OC (centres unmarked) [Example AH, 6-benzyloxy-1-[(E)-2-(4,5-dimethoxy-2-methyl-phenyl)vinyl]-7-methoxy-1,2,3,4-tetrahydroisoquinoline]	0.0133
CCn1cc(/C=C/C2NCCc3cc(OCc4ccccc4)c(OC)cc32)cn1 (centres unmarked) [Example AL, 6-Benzyloxy-1-[(E)-2-(1-ethylpyrazol-4-yl)vinyl]-7-methoxy-1,2,3,4-tetrahydroisoquinoline]	2.95
COc1cc2c(cc1OCc1ccccc1)CCNC2/C=C/c1cccc(-c2ncco2)c1 (centres unmarked) [EC, 2-[3-[(E)-2-(6-Benzyloxy-7-methoxy-1,2,3,4-tetrahydroisoquinolin-1-yl)vinyl]phenyl]oxazole]	0.93
COc1cc2c(cc1OCc1ccccc1)CCNC2/C=C/c1cc(OCC2CCNCC2)c(OC)cc1C (centres unmarked) [BY, 6-Benzyloxy-7-methoxy-1-[(E)-2-[4-methoxy-2-methyl-5-(4-piperidylmethoxy)phenyl]vinyl]-1,2,3,4-tetrahydroisoquinoline]	0.397

Structure (SMILES)	EC50 [µM]
COc1cc(/C=C/C2NCCc3cc(OCc4ccccc4)c(OC)cc32)ccn1 (centres unmarked) [AU, 6-benzyloxy-7-methoxy-1-[(E)-2-(2-methoxy-4-pyridyl)vinyl]-1,2,3,4-tetrahydroisoquinoline]	1.65
COc1cc2c(cc1OCc1ccccc1)CCNC2/C=C/c1ccc2c(c1)CCO2 (centres unmarked) [BM, 6-Benzyloxy-1-[(E)-2-(2,3-dihydrobenzofuran-5-yl)vinyl]-7-methoxy-1,2,3,4-tetrahydroisoquinoline]	0.146
COc1cc2c(cc1OCc1ccccc1)CCNC2/C=C/c1ccc(OC(F)(F)F)cc1C (centres unmarked) [Example AJ, (E)-6-(benzyloxy)-7-methoxy-1-(2-methyl-4-(trifluoromethoxy)styryl)-1,2,3,4-tetrahydroisoquinoline]	2.74
CCOC(=O)c1coc(-c2ccc(/C=C/C3NCCc4cc(OCc5ccccc5)c(OC)cc43)cc2)n1 (centres unmarked) [EE, Ethyl 2-[4-[(E)-2-(6-benzyloxy-7-methoxy-1,2,3,4-tetrahydroisoquinolin-1-yl)vinyl]phenyl]oxazole-4-carboxylate]	0.99
COc1ccc(/C=C/C2NCCc3cc(OCc4ccccc4)c(OC)cc32)cc1 (centres unmarked) [BJ, 6-Benzyloxy-7-methoxy-1-[(E)-2-(4-methoxyphenyl)vinyl]-1,2,3,4-tetrahydroisoquinoline]	0.477
COc1cc2c(cc1OCc1ccccc1)CCNC2/C=C/c1ccc2occc2c1 (centres unmarked) [BN, 1-[(E)-2-(benzofuran-5-yl)vinyl]-6-benzyloxy-7-methoxy-1,2,3,4-tetrahydroisoquinoline]	0.84
COc1cc2c(cc1OCc1ccccc1)CCNC2/C=C/c1c(C)ccc2c1OCCC2 (centres unmarked) [CC, 6-Benzyloxy-7-methoxy-1-[(E)-2-(7-methylchroman-8-yl)vinyl]-1,2,3,4-tetrahydroisoquinoline]	1.18
COc1cc(F)c(/C=C/C2NCCc3cc(OCc4ccccc4)c(OC)cc32)c(F)c1 (centres unmarked) [BU, 6-Benzyloxy-1-[(E)-2-(2,6-difluoro-4-methoxy-phenyl)vinyl]-7-methoxy-1,2,3,4-tetrahydroisoquinoline]	1.02
COc1cc2c(cc1OCc1ccccc1)CCNC2/C=C/c1cc2c(cc1C)OCC2 (centres unmarked) [CG, 6-Benzyloxy-7-methoxy-1-[(E)-2-(6-methyl-2,3-dihydrobenzofuran-5-yl)vinyl]-1,2,3,4-tetrahydroisoquinoline]	0.14
COc1cc2c(cc1OCc1ccccc1)CCNC2/C=C/c1cccc(OCc2ccccc2)c1 (centres unmarked) [BK, 6-Benzyloxy-1-[(E)-2-(3-benzyloxyphenyl)vinyl]-7-methoxy-1,2,3,4-tetrahydroisoquinoline]	0.26
COc1ccc(/C=C/C2NCCc3cc(OCc4ccccc4)c(OC)cc32)c(C)c1 (centres unmarked) [Example AG, 6-benzyloxy-7-methoxy-1-[(E)-2-(4-methoxy-2-methyl-phenyl)vinyl]-1,2,3,4-tetrahydroisoquinoline]	0.0771
COc1cc2c(cc1OCc1ccccc1)CCNC2c1ccccc1CNC(=O)OC(C)(C)C (centres unmarked) [AZ, tert-Butyl N-[[2-(6-benzyloxy-7-methoxy-1,2,3,4-tetrahydroisoquinolin-1-yl)phenyl]methyl]carbamate]	2.77
COc1cc2c(cc1OCc1ccccc1)CCNC2/C=C/c1ccc(-c2ncco2)cc1 (centres unmarked) [ED, 2-[4-[(E)-2-(6-Benzyloxy-7-methoxy-1,2,3,4-tetrahydroisoquinolin-1-yl)vinyl]phenyl]oxazole]	0.58
COc1cc2c(cc1OCc1ccccc1)CCNC2/C=C/c1ccccc1C(=O)O (centres unmarked) [ES, 2-[(E)-2-(6-benzyloxy-7-methoxy-1,2,3,4-tetrahydroisoquinolin-1-yl)vinyl]benzoic acid]	8.62
COc1cc2c(cc1OCc1ccccc1)CCNC2/C=C/c1ccccc1N (centres unmarked) [CX, 2-[(E)-2-(6-benzyloxy-7-methoxy-1,2,3,4-tetrahydroisoquinolin-1-yl)vinyl]aniline]	1.4
COc1cc(OC)c(/C=C/C2NCCc3cc(OCc4ccccc4)c(OC)cc32)cc1C (centres unmarked) [EH, 6-Benzyloxy-1-[(E)-2-(2,4-dimethoxy-5-methyl-phenyl)vinyl]-7-methoxy-1,2,3,4-tetrahydroisoquinolin]	0.066
COc1cc(OC)c(OC)cc1/C=C/C1NCCc2cc(OCc3ccccc3)c(OC)cc21 (centres unmarked) [AQ, 6-Benzyloxy-7-methoxy-1-[(E)-2-(2,4,5-trimethoxyphenyl)vinyl]-1,2,3,4-tetrahydroisoquinoline]	0.0151
